Data taken from patent US20150337003A1, “ABIRATERONE AND ANALOGS THEREOF FOR THE TREATMENT OF DISEASES ASSOCIATED WITH CORTISOL OVERPRODUCTION” (CORTENDO AB (PUBL), priority 2013, published 2015).
Values after ≈ are worked out from the molar mass of the structure shown.

Key:
Cyp11 = assay: in vitro enzyme profile: Cyp11 inhibition; format: biochemical
Cyp21 = target: T1, Cyp21 (Homo sapiens, UniProt P08686); assay: in vitro enzyme profile: Cyp21 inhibition; format: biochemical
T1 sequence (P08686 1-495): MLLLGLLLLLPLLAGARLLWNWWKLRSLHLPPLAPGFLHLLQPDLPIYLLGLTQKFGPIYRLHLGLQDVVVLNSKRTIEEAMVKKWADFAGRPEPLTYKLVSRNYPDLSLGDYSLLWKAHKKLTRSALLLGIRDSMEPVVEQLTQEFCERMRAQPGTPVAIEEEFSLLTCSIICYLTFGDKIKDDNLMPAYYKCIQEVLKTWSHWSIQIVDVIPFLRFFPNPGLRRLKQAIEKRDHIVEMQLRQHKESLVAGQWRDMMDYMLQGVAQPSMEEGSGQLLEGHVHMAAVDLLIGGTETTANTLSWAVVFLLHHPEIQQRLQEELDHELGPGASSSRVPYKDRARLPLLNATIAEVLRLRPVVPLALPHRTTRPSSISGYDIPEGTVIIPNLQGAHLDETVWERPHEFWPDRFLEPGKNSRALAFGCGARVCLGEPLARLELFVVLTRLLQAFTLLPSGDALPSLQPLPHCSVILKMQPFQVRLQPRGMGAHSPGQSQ

Cyp3A4 = Cyp3A4 (Homo sapiens, UniProt P08684); assay: in vitro enzyme profile: Cyp3A4 inhibition; format: in vitro ADME
Sequence of Cyp3A4 (P08684 whole entry): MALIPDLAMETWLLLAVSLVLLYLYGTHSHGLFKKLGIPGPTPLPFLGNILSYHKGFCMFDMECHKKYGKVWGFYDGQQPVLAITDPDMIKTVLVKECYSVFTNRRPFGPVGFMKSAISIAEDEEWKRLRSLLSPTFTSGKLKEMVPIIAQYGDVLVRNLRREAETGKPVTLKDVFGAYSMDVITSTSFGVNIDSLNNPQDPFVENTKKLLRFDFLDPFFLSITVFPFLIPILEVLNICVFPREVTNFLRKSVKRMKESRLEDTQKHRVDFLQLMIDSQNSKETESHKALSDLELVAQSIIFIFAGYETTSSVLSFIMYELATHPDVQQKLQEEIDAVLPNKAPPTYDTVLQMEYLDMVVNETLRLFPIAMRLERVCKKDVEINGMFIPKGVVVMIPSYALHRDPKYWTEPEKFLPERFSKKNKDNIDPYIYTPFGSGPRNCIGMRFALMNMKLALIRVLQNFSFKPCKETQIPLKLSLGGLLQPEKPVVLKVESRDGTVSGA

Cyp2D6 = Cyp2D6 (Homo sapiens, UniProt P10635); assay: in vitro enzyme profile: Cyp2D6 inhibition; format: in vitro ADME
Sequence of Cyp2D6 (P10635 whole entry): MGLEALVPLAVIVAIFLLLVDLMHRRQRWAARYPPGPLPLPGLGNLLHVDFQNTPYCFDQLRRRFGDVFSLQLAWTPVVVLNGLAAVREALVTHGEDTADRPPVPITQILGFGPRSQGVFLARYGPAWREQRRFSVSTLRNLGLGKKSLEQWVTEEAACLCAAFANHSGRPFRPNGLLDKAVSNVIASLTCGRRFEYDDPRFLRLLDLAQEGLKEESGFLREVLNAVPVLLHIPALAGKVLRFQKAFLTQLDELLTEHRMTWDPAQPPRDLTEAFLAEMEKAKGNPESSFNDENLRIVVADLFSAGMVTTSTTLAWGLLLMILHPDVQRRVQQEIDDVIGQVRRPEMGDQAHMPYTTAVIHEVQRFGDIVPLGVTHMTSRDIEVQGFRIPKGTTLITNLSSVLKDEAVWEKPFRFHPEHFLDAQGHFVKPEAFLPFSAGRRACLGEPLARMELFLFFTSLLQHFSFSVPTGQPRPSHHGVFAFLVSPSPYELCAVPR

Cyp2C9 = Cyp2C9 (Homo sapiens, UniProt P11712); assay: in vitro enzyme profile: Cyp2C9 inhibition; format: in vitro ADME
Sequence of Cyp2C9 (P11712 whole entry): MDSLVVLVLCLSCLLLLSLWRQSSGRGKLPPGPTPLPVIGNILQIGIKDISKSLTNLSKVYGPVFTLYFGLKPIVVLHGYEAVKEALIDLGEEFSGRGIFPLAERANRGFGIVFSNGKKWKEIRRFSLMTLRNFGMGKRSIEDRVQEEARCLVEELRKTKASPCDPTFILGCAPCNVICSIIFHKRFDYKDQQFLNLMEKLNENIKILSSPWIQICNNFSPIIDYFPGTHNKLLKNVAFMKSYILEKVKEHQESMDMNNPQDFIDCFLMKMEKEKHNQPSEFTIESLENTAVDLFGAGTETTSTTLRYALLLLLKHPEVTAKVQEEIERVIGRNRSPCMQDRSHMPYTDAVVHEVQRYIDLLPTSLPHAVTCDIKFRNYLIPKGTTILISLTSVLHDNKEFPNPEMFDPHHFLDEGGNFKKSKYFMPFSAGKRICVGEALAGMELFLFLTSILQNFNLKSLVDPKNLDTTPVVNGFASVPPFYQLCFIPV

Solubility = format: physicochemical
[1] = GPLM t1/2 (microsomal stability); format: in vitro ADME; settings: guinea pig, liver microsomes
[2] = HLM t1/2 (microsomal stability); format: in vitro ADME; settings: human, liver microsomes
[3] = test system: cortisol and testosterone after ACTH stimulation; assay: elevation of cortisol and testosterone after ACTH stimulation in male Guinea pigs; format: in vivo, Guinea pig; settings: for Cortisol, plasma / testosterone, plasma / Cortisol, plasma, Mean / testosterone, plasma, Mean: 25 IU/kg ACTH + 100 mg/kg PO; for Cortisol, plasma, Mean: mean of 4 Guinea pigs
Experimental: Each animal was dosed by oral gavage according to the following table at −0.5 hr, and then dosed by intramuscular injection with ACTH 25 IU/kg at 0 hr.
Animals were sedated under general inhalant anesthesia (3% isoflurane) and blood samples were retrieved at 1, 2 and 4 hrs via saphenous vein. Blood aliquots (400 uL) were collected in tubes coated with K2-EDTA, mixed gently, then kept on ice and centrifuged at 2,000 g for 5 minutes at 4° C. within 15 minutes of collection. The plasma was then harvested and kept frozen at −80° C. until further processing.

Cyp17 = target: T2, Cyp17 (Homo sapiens, UniProt P05093); assay: biochemical; settings: read-out: Cyp17 IC60 (nM)
T2 sequence (P05093 1-508): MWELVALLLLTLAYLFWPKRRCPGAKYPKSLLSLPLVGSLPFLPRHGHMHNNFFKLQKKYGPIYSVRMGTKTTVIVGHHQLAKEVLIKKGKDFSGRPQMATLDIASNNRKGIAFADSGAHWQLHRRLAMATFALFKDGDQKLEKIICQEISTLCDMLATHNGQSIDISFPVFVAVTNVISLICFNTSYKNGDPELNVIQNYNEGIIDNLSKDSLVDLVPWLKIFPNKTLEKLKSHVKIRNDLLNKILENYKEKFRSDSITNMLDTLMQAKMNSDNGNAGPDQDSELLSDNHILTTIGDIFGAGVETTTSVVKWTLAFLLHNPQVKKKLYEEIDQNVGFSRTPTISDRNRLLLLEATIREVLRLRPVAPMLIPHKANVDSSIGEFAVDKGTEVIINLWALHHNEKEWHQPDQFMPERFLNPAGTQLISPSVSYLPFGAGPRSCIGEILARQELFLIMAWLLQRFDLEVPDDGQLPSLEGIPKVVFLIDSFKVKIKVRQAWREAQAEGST

[4] = male Guinea pigs, ACTH stimulation, 100 mg/kg PO, vs vehicle

Cyp11 IC60 (Cyp11): 0.43 µM
IC60 (Cyp21): 1.55 µM
Cyp3A4 IC60 (Cyp3A4): 0.969 µM
Cyp2D6 IC60 (Cyp2D6): 2 µM
Cyp2C9 IC60 (Cyp2C9): 2 µM
solubility (Solubility): 1 µM (≈ 0.35 µg/mL)
half-life [1]: 7.7 min
half-life [2]: 60 min
IC60 (Cyp17): 1.78 nM
SMILES: C[C@]12CC[C@H](O)CC1=CC[C@@H]1[C@@H]2CC[C@]2(C)C(c3cccnc3)=CC[C@@H]12 [abiraterone, (3S,8R,9S,10R,13S,14S)-10,13-dimethyl-17-(pyridin-3-yl)-2,3,4,7,8,9,10,11,12,13,14,15-dodecahydro-1H-cyclopenta[a]phenanthren-3-ol]
Cortisol, plasma ([3]; Guinea pig#19, 1 hr): 692 ng/mL
testosterone, plasma ([3]; Guinea pig#19, 1 hr): BQL
Cortisol, plasma ([3]; Guinea pig#19, 2 hr): 574 ng/mL
testosterone, plasma ([3]; Guinea pig#19, 2 hr): BQL
Cortisol, plasma ([3]; Guinea pig#19, 4 hr): 320 ng/mL
testosterone, plasma ([3]; Guinea pig#19, 4 hr): 0.328 ng/mL
Cortisol, plasma ([3]; Guinea pig#20, 1 hr): 821 ng/mL
testosterone, plasma ([3]; Guinea pig#20, 1 hr): BQL
Cortisol, plasma ([3]; Guinea pig#20, 2 hr): 720 ng/mL
testosterone, plasma ([3]; Guinea pig#20, 2 hr): 0.473 ng/mL
Cortisol, plasma ([3]; Guinea pig#20, 4 hr): 461 ng/mL
testosterone, plasma ([3]; Guinea pig#20, 4 hr): BQL
Cortisol, plasma ([3]; Guinea pig#21, 1 hr): 659 ng/mL
testosterone, plasma ([3]; Guinea pig#21, 1 hr): BQL
Cortisol, plasma ([3]; Guinea pig#21, 2 hr): 470 ng/mL
testosterone, plasma ([3]; Guinea pig#21, 2 hr): BQL
Cortisol, plasma ([3]; Guinea pig#21, 4 hr): 325 ng/mL
testosterone, plasma ([3]; Guinea pig#21, 4 hr): BQL
Cortisol, plasma ([3]; Guinea pig#22, 1 hr): 970 ng/mL
testosterone, plasma ([3]; Guinea pig#22, 1 hr): 0.501 ng/mL
Cortisol, plasma ([3]; Guinea pig#22, 2 hr): 876 ng/mL
testosterone, plasma ([3]; Guinea pig#22, 2 hr): 0.520 ng/mL
Cortisol, plasma ([3]; Guinea pig#22, 4 hr): 529 ng/mL
testosterone, plasma ([3]; Guinea pig#22, 4 hr): 0.461 ng/mL
effect on cortisol levels [3, 4]: significantly lower
effect on testosterone levels [3, 4]: significantly lower
Cortisol, plasma, Mean ([3]; 1 hr): 786 ng/mL
Cortisol, plasma, Mean ([3]; 2 hr): 660 ng/mL
Cortisol, plasma, Mean ([3]; 4 hr): 409 ng/mL
testosterone, plasma, Mean ([3]; 1 hr): 0.501 ng/mL
testosterone, plasma, Mean ([3]; 2 hr): 0.497 ng/mL
testosterone, plasma, Mean ([3]; 4 hr): 0.395 ng/mL
